Laboratory results reported in ChEMBL document CHEMBL1201862, “PubChem BioAssay data set” (2004).
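In this assay, cells in 96-well plates receive the compound at five concentrations for 48 hours. Endpoints are linearly interpolated between the surrounding concentrations. GI50 is the concentration that inhibits growth by half.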 The source made the active and inactive calls. No stated cut-off is given here; in the data, active = GI50 up to about 1.1 µM and inactive = higher.

Legend:
Experiment in all cases: growth of human tumour cells (NCI), 48 h
LXFL 529 = system: LXFL 529
NCI-H226 = system: NCI-H226
ACHN = system: ACHN
SK-OV-3 = system: SK-OV-3
RXF 393 = system: RXF 393
OVCAR-5 = system: OVCAR-5
LOX IMVI = system: LOX IMVI
BT-549 = system: BT-549
K562 = system: K562
Hs-578T = system: Hs-578T
NCI-H522 = system: NCI-H522
SK-MEL-2 = system: SK-MEL-2
CAKI-1 = system: CAKI-1
HCT-15 = system: HCT-15
UACC-257 = system: UACC-257
KM12 = system: KM12
SF-268 = system: SF-268
NCI-H460 = system: NCI-H460
MDA-MB-435 = system: MDA-MB-435
SW-620 = system: SW-620

In the case of `O=P(O)(NCCCl)NCCCl` [PALIFOSFAMIDE], the GI50 (LXFL 529) is reported as > 10 µM (inactive), the GI50 (NCI-H226) is reported as > 100 µM (inactive) and the GI50 (ACHN) is reported as 39.3 µM (inactive). For the same molecule, the GI50 (SK-OV-3) was > 55.8 µM (inactive), the GI50 (RXF 393) was > 10 µM (inactive) and the GI50 (OVCAR-5) was > 10 µM (inactive). The GI50 (LOX IMVI) was 29.9 µM (inactive), the GI50 (BT-549) was > 100 µM (inactive) and the GI50 (K562) was > 100 µM (inactive). For the same molecule, the GI50 (Hs-578T) was > 100 µM (inactive), the GI50 (NCI-H522) was > 100 µM (inactive) and the GI50 (SK-MEL-2) was > 100 µM (inactive). The GI50 (CAKI-1) was 39.8 µM (inactive), the GI50 (HCT-15) was greater than 10 µM and the GI50 (UACC-257) was > 10 µM (inactive). For the same molecule, the GI50 (KM12) was > 10 µM (inactive), the GI50 (SF-268) was 57.8 µM (inactive) and the GI50 (NCI-H460) was 28.8 µM (inactive). The GI50 (MDA-MB-435) was > 100 µM (inactive) and the GI50 (SW-620) was > 10 µM (inactive).
With `C=C[C@]1(C)CC(O)C2C(=C)C(=O)OC2[C@H]1C(=C)C=O` (some centres not stated) the GI50 (LXFL 529) was 1.64 µM (inactive), the GI50 (NCI-H226) was 6.59 µM (inactive) and the GI50 (ACHN) was 2.36 µM (inactive). The GI50 (SK-OV-3) was 25.8 µM (inactive), the GI50 (RXF 393) was 2.07 µM (inactive) and the GI50 (OVCAR-5) was 10.8 µM (inactive). For the same molecule, the GI50 (LOX IMVI) was 1.01 µM (active), the GI50 (BT-549) was 3.27 µM (inactive) and the GI50 (K562) was 2.52 µM (inactive). The GI50 (Hs-578T) was 14.4 µM (inactive), the GI50 (NCI-H522) was 0.966 µM (active) and the GI50 (SK-MEL-2) was 3.5 µM (inactive). For the same molecule, the GI50 (CAKI-1) was 4.35 µM (inactive), the GI50 (HCT-15) was 2.06 µM and the GI50 (UACC-257) was 1.57 µM (inactive). The GI50 (KM12) was 2.17 µM (inactive), the GI50 (SF-268) was 3.95 µM (inactive) and the GI50 (NCI-H460) was 14.5 µM (inactive). The GI50 (SW-620) was 1.44 µM (inactive).
With `CCC1(O)C(=O)OCc2c1cc1n(c2=O)Cc2cc3ccc(CO)cc3nc2-1` (configuration not stated) the GI50 (LXFL 529) was 26.7 µM (inactive), the GI50 (NCI-H226) was 1.59 µM (inactive) and the GI50 (ACHN) was 2.86 µM (inactive). The GI50 (SK-OV-3) was 2.26 µM (inactive), the GI50 (RXF 393) was 7.26 µM (inactive) and the GI50 (OVCAR-5) was 8.97 µM (inactive). The GI50 (LOX IMVI) was 1.83 µM (inactive), the GI50 (K562) was 4.3 µM (inactive) and the GI50 (NCI-H522) was 1.64 µM (inactive). The GI50 (SK-MEL-2) was 18 µM (inactive), the GI50 (CAKI-1) was 2.97 µM (inactive) and the GI50 (HCT-15) was 15.6 µM. For the same molecule, the GI50 (UACC-257) was 12.2 µM (inactive), the GI50 (KM12) was 9.35 µM (inactive) and the GI50 (SF-268) was 0.995 µM (active). For the same molecule, the GI50 (NCI-H460) was 1.09 µM (active) and the GI50 (SW-620) was 7.52 µM (inactive).
With `O=C(NCCCCCCCCNC(=O)c1cccc2ccccc12)c1cccc2ccccc12` the GI50 (LXFL 529) was > 56.5 µM (inactive), the GI50 (NCI-H226) was 8.43 µM (inactive) and the GI50 (ACHN) was 17.1 µM (inactive). The GI50 (SK-OV-3) was 10.7 µM (inactive), the GI50 (RXF 393) was 2.25 µM (inactive) and the GI50 (OVCAR-5) was > 100 µM (inactive). The GI50 (LOX IMVI) was > 77.8 µM (inactive), the GI50 (BT-549) was 39.6 µM (inactive) and the GI50 (K562) was > 100 µM (inactive). The GI50 (NCI-H522) was 9.4 µM (inactive), the GI50 (SK-MEL-2) was 37.2 µM (inactive) and the GI50 (CAKI-1) was 18.2 µM (inactive). The GI50 (HCT-15) was 97.5 µM, the GI50 (UACC-257) was > 93.1 µM (inactive) and the GI50 (KM12) was > 100 µM (inactive). The GI50 (SF-268) was 9.93 µM (inactive), the GI50 (NCI-H460) was 65.3 µM (inactive) and the GI50 (MDA-MB-435) was > 100 µM (inactive). For the same molecule, the GI50 (SW-620) was > 100 µM (inactive).
For `COc1ccc(S(=O)(=O)NNS(C)(=O)=O)cc1OC`, the GI50 (LXFL 529) was > 100 µM (inactive), the GI50 (NCI-H226) was > 100 µM (inactive) and the GI50 (ACHN) was > 100 µM (inactive). The GI50 (RXF 393) was 31.3 µM (inactive), the GI50 (LOX IMVI) was > 100 µM (inactive) and the GI50 (K562) was > 100 µM (inactive). The GI50 (NCI-H522) was > 100 µM (inactive), the GI50 (SK-MEL-2) was > 100 µM (inactive) and the GI50 (CAKI-1) was > 100 µM (inactive). The GI50 (HCT-15) was greater than 100 µM, the GI50 (UACC-257) was > 100 µM (inactive) and the GI50 (KM12) was > 100 µM (inactive). The GI50 (SF-268) was 79.4 µM (inactive), the GI50 (NCI-H460) was > 100 µM (inactive) and the GI50 (SW-620) was > 100 µM (inactive).
`CCC(C)CC(C)CC(C)/C=C(\C)C1=C(C)CC(C)(O)O1` (configuration not stated) was tested, and the GI50 (LXFL 529) was 53 µM (inactive), the GI50 (NCI-H226) was 76.9 µM (inactive) and the GI50 (ACHN) was 87.5 µM (inactive). The GI50 (SK-OV-3) was > 100 µM (inactive), the GI50 (RXF 393) was 88.9 µM (inactive) and the GI50 (LOX IMVI) was > 100 µM (inactive). The GI50 (K562) was 46.7 µM (inactive), the GI50 (NCI-H522) was 42.2 µM (inactive) and the GI50 (CAKI-1) was 79.8 µM (inactive). For the same molecule, the GI50 (HCT-15) was greater than 100 µM, the GI50 (UACC-257) was 79.1 µM (inactive) and the GI50 (NCI-H460) was 65.6 µM (inactive). The GI50 (SW-620) was > 100 µM (inactive).
In the case of `COC1C2c3cc4c(cc3CC(C#N)(c3ccccc32)N1C(=O)c1ccccc1)OCO4` (configuration not stated), the GI50 (LXFL 529) is reported as > 100 µM (inactive), the GI50 (NCI-H226) is reported as 93.3 µM (inactive) and the GI50 (ACHN) is reported as > 100 µM (inactive). The GI50 (SK-OV-3) was > 100 µM (inactive), the GI50 (RXF 393) was 32.2 µM (inactive) and the GI50 (OVCAR-5) was > 100 µM (inactive). For the same molecule, the GI50 (LOX IMVI) was > 100 µM (inactive), the GI50 (K562) was 54.6 µM (inactive) and the GI50 (NCI-H522) was 87.3 µM (inactive). The GI50 (SK-MEL-2) was > 100 µM (inactive), the GI50 (HCT-15) was greater than 100 µM and the GI50 (UACC-257) was > 100 µM (inactive). The GI50 (KM12) was > 100 µM (inactive), the GI50 (SF-268) was > 100 µM (inactive) and the GI50 (NCI-H460) was > 100 µM (inactive). The GI50 (SW-620) was > 100 µM (inactive).
For `C=C(CN(C)C)C(=O)c1ccccc1OC`, the GI50 (LXFL 529) was 3.68 µM (inactive), the GI50 (NCI-H226) was 37.2 µM (inactive) and the GI50 (ACHN) was 14.5 µM (inactive). For the same molecule, the GI50 (SK-OV-3) was 47.5 µM (inactive), the GI50 (RXF 393) was 7.85 µM (inactive) and the GI50 (OVCAR-5) was 19.1 µM (inactive). For the same molecule, the GI50 (LOX IMVI) was 13.8 µM (inactive), the GI50 (BT-549) was 17.4 µM (inactive) and the GI50 (K562) was 4.35 µM (inactive). For the same molecule, the GI50 (Hs-578T) was 20.7 µM (inactive), the GI50 (NCI-H522) was 2.04 µM (inactive) and the GI50 (SK-MEL-2) was 14.4 µM (inactive). For the same molecule, the GI50 (CAKI-1) was 9.82 µM (inactive), the GI50 (HCT-15) was 15.9 µM and the GI50 (UACC-257) was 15.6 µM (inactive). The GI50 (KM12) was 25.3 µM (inactive), the GI50 (SF-268) was 25.2 µM (inactive) and the GI50 (NCI-H460) was 38.1 µM (inactive). For the same molecule, the GI50 (MDA-MB-435) was 19.5 µM (inactive) and the GI50 (SW-620) was 4.31 µM (inactive).
For `O=C(Cc1ccccc1)NS(=O)(=O)c1ccccc1`, the GI50 (LXFL 529) was > 100 µM (inactive), the GI50 (NCI-H226) was > 100 µM (inactive) and the GI50 (ACHN) was > 100 µM (inactive). The GI50 (SK-OV-3) was > 100 µM (inactive), the GI50 (RXF 393) was > 100 µM (inactive) and the GI50 (OVCAR-5) was > 100 µM (inactive). The GI50 (LOX IMVI) was > 100 µM (inactive), the GI50 (K562) was > 100 µM (inactive) and the GI50 (NCI-H522) was > 100 µM (inactive). For the same molecule, the GI50 (SK-MEL-2) was > 100 µM (inactive), the GI50 (CAKI-1) was > 100 µM (inactive) and the GI50 (UACC-257) was > 100 µM (inactive). For the same molecule, the GI50 (KM12) was > 100 µM (inactive), the GI50 (SF-268) was > 100 µM (inactive) and the GI50 (NCI-H460) was > 100 µM (inactive). The GI50 (SW-620) was > 100 µM (inactive).
In the case of `COc1ccc(CCc2ccccc2CC(=O)O)cc1`, the GI50 (LXFL 529) is reported as > 100 µM (inactive), the GI50 (NCI-H226) is reported as > 100 µM (inactive) and the GI50 (ACHN) is reported as > 100 µM (inactive). The GI50 (SK-OV-3) was > 100 µM (inactive), the GI50 (RXF 393) was > 100 µM (inactive) and the GI50 (OVCAR-5) was > 100 µM (inactive). For the same molecule, the GI50 (LOX IMVI) was > 100 µM (inactive), the GI50 (K562) was > 100 µM (inactive) and the GI50 (NCI-H522) was > 100 µM (inactive). For the same molecule, the GI50 (SK-MEL-2) was > 100 µM (inactive), the GI50 (CAKI-1) was > 100 µM (inactive) and the GI50 (HCT-15) was greater than 100 µM. The GI50 (UACC-257) was > 100 µM (inactive), the GI50 (KM12) was > 100 µM (inactive) and the GI50 (SF-268) was > 100 µM (inactive). For the same molecule, the GI50 (NCI-H460) was > 100 µM (inactive) and the GI50 (SW-620) was > 100 µM (inactive).
With `CC(=O)N(C(C)=O)c1c(N)n(C)c(=O)[nH]c1=O` the GI50 (LXFL 529) was > 100 µM (inactive), the GI50 (NCI-H226) was > 100 µM (inactive) and the GI50 (ACHN) was > 100 µM (inactive). For the same molecule, the GI50 (RXF 393) was > 100 µM (inactive), the GI50 (OVCAR-5) was > 100 µM (inactive) and the GI50 (LOX IMVI) was > 100 µM (inactive). For the same molecule, the GI50 (K562) was > 100 µM (inactive), the GI50 (SK-MEL-2) was > 100 µM (inactive) and the GI50 (CAKI-1) was > 100 µM (inactive). The GI50 (HCT-15) was greater than 100 µM, the GI50 (UACC-257) was > 100 µM (inactive) and the GI50 (KM12) was > 100 µM (inactive). The GI50 (SF-268) was > 100 µM (inactive), the GI50 (NCI-H460) was > 100 µM (inactive) and the GI50 (SW-620) was > 100 µM (inactive).
